According to patent US11084795B2, “CFTR regulators and methods of use thereof” (The Regents of the University of California, priority 2015, dated 2021):
Like-named read-outs stand apart in the source and are kept apart here. Where a SMILES comes first, the peptide text is derived from it. Bridges are numbered along the chain shown (N, C = ends).

What was measured:
human wildtype CFTR [1] = target: T1, human wildtype CFTR (Homo sapiens, UniProt P13569); experiment: Short-circuit current (Isc) in FRT cells expressing human wild-type CFTR
T1 sequence (P13569 whole entry): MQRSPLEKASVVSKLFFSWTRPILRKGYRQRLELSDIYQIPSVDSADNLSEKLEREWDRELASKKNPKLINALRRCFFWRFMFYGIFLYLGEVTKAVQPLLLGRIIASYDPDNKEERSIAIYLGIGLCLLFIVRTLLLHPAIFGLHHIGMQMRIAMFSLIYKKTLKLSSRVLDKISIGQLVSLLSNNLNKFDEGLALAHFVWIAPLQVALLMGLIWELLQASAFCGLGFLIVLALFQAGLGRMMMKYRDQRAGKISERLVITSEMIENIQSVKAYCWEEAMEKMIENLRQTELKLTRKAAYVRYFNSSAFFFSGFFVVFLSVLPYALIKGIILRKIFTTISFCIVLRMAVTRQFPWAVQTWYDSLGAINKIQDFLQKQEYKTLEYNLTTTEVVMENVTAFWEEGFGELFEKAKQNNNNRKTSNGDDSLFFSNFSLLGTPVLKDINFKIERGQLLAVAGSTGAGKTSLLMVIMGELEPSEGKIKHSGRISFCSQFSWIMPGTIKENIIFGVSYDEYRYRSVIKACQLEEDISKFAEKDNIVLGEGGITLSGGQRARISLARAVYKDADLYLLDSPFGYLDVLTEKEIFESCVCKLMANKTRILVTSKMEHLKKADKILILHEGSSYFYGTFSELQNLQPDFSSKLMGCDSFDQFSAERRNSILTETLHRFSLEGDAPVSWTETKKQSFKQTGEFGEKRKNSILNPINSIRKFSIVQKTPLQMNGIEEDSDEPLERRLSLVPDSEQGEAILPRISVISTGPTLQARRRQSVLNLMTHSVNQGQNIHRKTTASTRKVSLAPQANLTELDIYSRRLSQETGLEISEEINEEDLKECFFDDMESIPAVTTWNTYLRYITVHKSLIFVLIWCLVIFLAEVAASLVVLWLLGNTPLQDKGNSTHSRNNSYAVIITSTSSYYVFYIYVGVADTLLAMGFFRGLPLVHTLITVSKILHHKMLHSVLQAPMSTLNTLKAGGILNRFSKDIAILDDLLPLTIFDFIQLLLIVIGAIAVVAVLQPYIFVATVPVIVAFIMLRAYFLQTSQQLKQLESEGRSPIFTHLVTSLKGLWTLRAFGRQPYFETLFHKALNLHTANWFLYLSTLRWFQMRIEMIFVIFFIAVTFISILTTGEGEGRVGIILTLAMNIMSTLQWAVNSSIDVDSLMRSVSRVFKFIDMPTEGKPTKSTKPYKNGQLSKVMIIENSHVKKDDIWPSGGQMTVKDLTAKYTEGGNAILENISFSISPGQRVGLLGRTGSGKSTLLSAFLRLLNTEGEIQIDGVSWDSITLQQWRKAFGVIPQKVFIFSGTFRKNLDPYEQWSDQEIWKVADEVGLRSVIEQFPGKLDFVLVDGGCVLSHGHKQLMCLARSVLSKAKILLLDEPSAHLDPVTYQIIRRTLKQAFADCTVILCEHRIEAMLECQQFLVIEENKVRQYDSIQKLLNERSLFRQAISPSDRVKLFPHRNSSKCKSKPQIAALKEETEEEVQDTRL

human wildtype CFTR [2] = target: T1, human wildtype CFTR; experiment: Fluorescence plate reader assay of iodide influx in FRT cells co-expressing CFTR and YFP halide sensor
[3] = system: chronic constipation / IBS-C patients; details: linaclotide: chronic constipation; lubiprostone: IBS-C; cited from earlier work
loperamide-treated mice = experiment: Loperamide-induced mouse model of constipation
tear fluid secretion = type: in vivo, mouse
[4] = system: CFTR at the ocular surface; experiment: Ocular surface potential difference (PD) in living mice; type: in vivo, mouse; details: wild-type mice, 1-10 μM
Method: Open-circuit transepithelial PD were measured continuously in anesthetized mice in response to serial perfusions of different solutions over the ocular surface, as described (21). Mice were anesthetized with Avertin (2,2,2-tribromoethanol, 125 mg/kg intraperitoneal, Sigma-Aldrich, St. Louis, Mo., USA), and core temperature was maintained at 37° C. using a heating pad. Eyes were oriented with the cornea and conjunctiva facing upward and exposed by retracting the eyelid with cross-action forceps. Solutions were isosmolar (320±10 mOsM; compositions provided in ref. 21) and contained 10μ[…] indomethacin to prevent CFTR activation by prostaglandins. The ocular surface was perfused at 6 mL/min through plastic tubing using a multireservoir gravity pinch-valve system (ALA Scientific, Westbury, N.Y., USA) and variable-flow peristaltic pump (medium flow model; Fisher Scientific, Fair Lawn, N.J., USA). A probe catheter was fixed 1 mm above the cornea using a micropositioner and a suction cannula was positioned 3 mm from the orbit. The measuring electrode was in contact to the perfusion catheter and connected to a high-impedance voltmeter (IsoMilivolt Meter; WPI). The reference electrode was grounded via a winged 21-gauge needle filled with isosmolar saline, and inserted subcutaneously in the abdomen. Measuring and reference electrodes consisted of Ag/AgCl with 3 M KCl agar bridges.
An open-circuit potential difference (PD) method developed in our lab was used to evaluate compound activity at the ocular surface in vivo, as depicted in FIG. 3A (21). Cl^− channel function was quantified by measuring PD during continuous perfusion of the ocular surface with a series of solutions that imposed a transepithelial Cl^− gradient and contained various channel agonists and/or inhibitors. The ocular surface was first perfused with isosmolar saline to record the baseline PD. Amiloride was then added to the perfusate, followed by exchange to a low Cl^− solution in which Cl^− with an impermeant anion, gluconate. These maneuvers allow for direct visualization of CFTR activation in response to addition of candidate CFTR activators.
Ocular surface potential difference measurements. Open-circuit transepithelial PD were measured continuously in anesthetized mice in response to serial perfusions of different solutions over the ocular surface, as described (21). Mice were anesthetized with Avertin (2,2,2-tribromoethanol, 125 mg/kg intraperitoneal, Sigma-Aldrich, St. Louis, Mo., USA), and core temperature was maintained at 37° C. using a heating pad. Eyes were oriented with the cornea and conjunctiva facing upward and exposed by retracting the eyelid with cross-action forceps. […]

[5] = wild-type mice, B074 100 μM, J027 and K089 50 μM, VX-770 10 μM, cholera toxin 0.1 μg/mL, forskolin 20 μM, IBMX 250 μM
[6] = read-out: EC50, variation in the N1-substituent, plate reader assay

With Nc1ccc([N+](=O)[O-])cc1-c1nc2cc(Cl)ccc2n(Cc2ccccc2)c1=O [CFTRact-J135, 3-(2-Amino-5-nitrophenyl)-1-benzyl-6-chloroquinoxalin-2(1H)-one] the EC50 (human wildtype CFTR [1]; EC50 for CFTR activation, FRT cells, wild-type CFTR, short-circuit current) was roughly 300 nM, the “extent of CFTR activation (Isc)” value (human wildtype CFTR [1]; forskolin produced little or no further increase in current) was “fully activated CFTR” and the EC50 (human wildtype CFTR [2]) was 110 nM.
In the case of C[C@@H]1NC(=O)[C@@H]2CCCN2C(=O)[C@H](CC(N)=O)NC(=O)[C@@H]2CSSC[C@H](N)C(=O)N[C@H]3CSSC[C@H](NC1=O)C(=O)N[C@@H]([C@@H](C)O)C(=O)NCC(=O)N[C@H](C(=O)N[C@@H](Cc1ccc(O)cc1)C(=O)O)CSSC[C@H](NC(=O)[C@H](Cc1ccc(O)cc1)NC(=O)[C@H](CCC(=O)O)NC3=O)C(=O)N2 [linaclotide, reference compound] (H-CCEYCCNPACTGCY-OH; disulfide 1-6, 2-10, 5-13), the “patients in whom the drug was effective” value [3] is given as roughly 20% and the “stool output normalization as % of the maximal CFTRact-J027 response” value (loperamide-treated mice; oral 0.5 mg/kg, loperamide-treated mice) is given as 35%.
For Cn1c(=O)c(-c2cc([N+](=O)[O-])ccc2N)nc2ccccc21 [inactive chemical analog of CFTRact-J027, reference compound], the “efficacy on stool parameters of inactive analog” value (loperamide-treated mice; loperamide-treated wildtype mice) was “nor was an inactive chemical analog of CFTRact-J027 effective in wildtype mice”.
For CCCCC(F)(F)[C@@]1(O)CC[C@H]2[C@@H](CC(=O)[C@@H]2CCCCCCC(=O)O)O1 [lubiprostone], the “patients in whom the drug was effective” value [3] is listed as roughly 13%.
With CC(C)Cn1c(=O)n(C)c(=O)c2[nH]cnc21 [IBMX, 3-isobutyl-1-methylxanthine, reference compound] the “tear fluid secretion after single topical dose” value (“tear fluid secretion” for short) (tear fluid secretion; [5]) was “substantially increased basal tear secretion at 30 min, but these effects were transient and undetectable after 2 hours”.
With CC(C)(C)c1cc(C(C)(C)C)c(NC(=O)c2c[nH]c3ccccc3c2=O)cc1O [VX-770, reference compound] the “change in ocular surface PD” value [4] was “minimal changes in ocular surface PD”, the “tear fluid secretion” value (tear fluid secretion; [5]) was “little tear secretion” and the “activity against wild-type CFTR” value (human wildtype CFTR [1]) was “relatively weak activity”. The “maximal CFTR activation” value (human wildtype CFTR [1]; wild-type CFTR) was 15%.
For O=c1c(-c2cccc([N+](=O)[O-])c2)nc2ccccc2n1Cc1ccco1 [Compound 3i, 1-(Furan-2-ylmethyl)-3-(3-nitrophenyl)quinoxalin-2(1H)-one], the EC50 (human wildtype CFTR [2]; [6]) was 20 nM.
For O=c1c(-c2cc(Br)ccc2NCc2ccccc2)nc2ccccc2n1Cc1ccccc1 [CFTRact-J056], the “CFTR activity of commercial analogs relative to CFTRact-J027” value (human wildtype CFTR [2]) was “greatly reduced activity” and the EC50 (human wildtype CFTR [2]) was roughly 15000 nM.
For CC(=O)Nc1ccccc1-c1nc2ccccc2n(Cc2ccccc2)c1=O [CFTRact-J057], the “CFTR activity of commercial analogs relative to CFTRact-J027” value (human wildtype CFTR [2]) was “greatly reduced activity” and the EC50 (human wildtype CFTR [2]) was roughly 15000 nM.
For O=c1c(-c2cccc([N+](=O)[O-])c2)nc2ccccc2n1Cc1ccc2ccccc2c1 [Compound 3g, 1-(Naphthalen-2-ylmethyl)-3-(3-nitrophenyl)quinoxalin-2(1H)-one], the EC50 (human wildtype CFTR [2]; [6]) was 4300 nM.
Nc1ccc(F)cc1-c1nc2ccccc2n(Cc2ccccc2)c1=O [CFTRact-J133, 3-(2-Amino-5-fluorophenyl)-1-benzylquinoxalin-2(1H)-one] showed an EC50 (human wildtype CFTR [2]) of 790 nM.
For cholera toxin [reference compound], the “tear fluid secretion” value (tear fluid secretion; mouse, in vivo) was “substantially increased basal tear secretion at 30 min, but these effects were transient and undetectable after 2 hours”.
Nc1ccc([N+](=O)[O-])cc1-c1nc2ccccc2n(Cc2ccc(Br)cc2)c1=O [CFTRact-J102, 3-(2-Amino-5-nitrophenyl)-1-(4-bromobenzyl)quinoxalin-2(1H)-one] gave an EC50 (human wildtype CFTR [2]) greater than 25000 nM.
Work on O=c1c(-c2ccc3nonc3c2)nc2ccccc2n1Cc1ccccc1 [Compound 1m, 3-(Benzo[c][1,2,5]oxadiazol-5-yl)-1-benzylquinoxalin-2(1H)-one] yielded an EC50 (human wildtype CFTR [2]; read-out: EC50, variation in the 3-aryl ring, plate reader assay) of 18 nM.
For O=c1c(-c2cccc([N+](=O)[O-])c2)nc2ccccc2n1Cc1cccc2ccccc12 [Compound 3f, 1-(Naphthalen-1-ylmethyl)-3-(3-nitrophenyl)quinoxalin-2(1H)-one], the “EC50, variation in the N1-substituent” value (human wildtype CFTR [2]; plate reader assay) was “EC50 = Inactive”.
Work on Fc1ccc2nc3n(Cc4ccccc4)c4ccc(C(F)(F)F)cc4nc-3c2c1 [Compound 22] yielded an EC50 (human wildtype CFTR [2]) greater than 10000 nM.
Nc1ccc(I)cc1-c1nc2ccccc2n(Cc2ccccc2[N+](=O)[O-])c1=O [CFTRact-J143, 3-(2-Amino-5-iodophenyl)-1-(2-nitrobenzyl)quinoxalin-2(1H)-one] gave an EC50 (human wildtype CFTR [2]) greater than 25000 nM.
For Cc1cccc2nc(-c3cccc([N+](=O)[O-])c3)c(=O)n(Cc3ccccc3)c12 [Compound 2h, 1-Benzyl-8-methyl-3-(3-nitrophenyl)quinoxalin-2(1H)-one], the EC50 (human wildtype CFTR [2]) was greater than 10000 nM.
In the case of Nc1ccc(Br)cc1-c1nc2ccccc2n(Cc2ccccc2)c1=O [CFTRact-J134, 3-(2-Amino-5-bromophenyl)-1-benzylquinoxalin-2(1H)-one], the EC50 (human wildtype CFTR [2]) is reported as 310 nM.
Nc1ccc([N+](=O)[O-])cc1-c1nc2cc(Br)ccc2n(Cc2ccccc2)c1=O [CFTRact-J136, 3-(2-Amino-5-nitrophenyl)-1-benzyl-6-bromoquinoxalin-2(1H)-one] showed an EC50 (human wildtype CFTR [2]) of 260 nM.
In the case of C=CCn1c(=O)c(-c2cccc([N+](=O)[O-])c2)nc2ccccc21 [Compound 3e, 1-Allyl-3-(3-nitrophenyl)quinoxalin-2(1H)-one], the EC50 (human wildtype CFTR [2]; [6]) is reported as 55 nM.
Work on O=c1c(-c2cccc([N+](=O)[O-])c2)nc2c(Cl)cccc2n1Cc1ccccc1 [Compound 2c, 1-Benzyl-5-chloro-3-(3-nitrophenyl)quinoxalin-2(1H)-one] yielded an EC50 (human wildtype CFTR [2]; read-out: EC50, variation in the quinoxalinone core, plate reader assay) of 110 nM.
